# Data from patent US10745384B2, “Indazole derivatives as αv integrin antagonists” (BRISTOL-MYERS SQUIBB COMPANY, priority 2016, dated 2020).
# Structures can show the parent of a compound that is named as a salt.
# Assays:
# human αVβ6 = target: T1, human αVβ6 (Homo sapiens, UniProt P06756+P18564); test: human αVβ6 HTRF binding assay; conditions: recombinant human αVβ6 integrin, FITC-conjugated fibronectin
# T1 construct: purchased R & D systems 3817-AV
# Summary of the method: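 HTRF binding in 20 mM Tris pH 7.4 with 1 mM MgCl2, 1 mM MnCl2, 0.01% Tween 20 and 0.01% BSA. For αVβ6, biotinylated integrin (1.25 nM) and FITC-fibronectin (5 nM) were incubated 1 h at RT, then streptavidin-terbium (0.625 nM) was added overnight in the dark. An SPA-based fibronectin binding format was an alternative.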
# human αVβ1 = human αVβ1 (Homo sapiens, UniProt P05556+P06756); test: human αVβ1 HTRF binding assay
# Procedure: (§1) All binding assays used the HTRF (homogeneous time resolved fluorescence) technology from Cisbio International, therefore all assays are described as HTRF binding assays. The assay results for the Examples are listed above together with the characterization data. The HTRF binding assays are established for the following integrins: human αVβ6, human αVβ1, human αVβ3, human αVβ5, and human αVβ8. All assays used the following assay buffer: 20 mM Tris, pH 7.4, 1 mM MgCl2, 1 mM MnCl2, 0.01% Tween 20, and 0.01% BSA. Alternatively, a SPA-based assay was used for evaluation of receptor binding.
# (§2) The following describes the components and a representative procedure for the human αVβ6 HTRF binding assay: Recombinant human αVβ6 Integrin (R & D systems, 3817-AV) was biotinylated. Biotinylated human αVβ6 Integrin was added to assay vessel at a final concentration of 1.25 nM. FITC-conjugated fibronectin (Cytoskeleton, FNR02) was then added at the final concentration of 5 nM. The mixture was centrifuged at 600 rpm for three minutes using Thermo Fisher Heraeus Multifuge X3 centrifuge and then incubated at room temperature for an hour. Streptavidin Terbium (Cisbio international 610STLB) was then added at the final concentration of 0.625 nM. The resulting mixture was centrifuged at 600 rpm for three minutes using Thermo Fisher Heraeus Multifuge X3 centrifuge and then incubated at room temperature overnight in dark before reading HTRF signals.
# The SPA-based assay was carried out according to the protocol and procedures similar to the ones described in the following reference with appropriate modifications to agents and ligands which are readily understood by one skilled in the art: Pachter J A, Zhang R, Mayer-Ezell R., “Scintillation proximity assay to measure binding of soluble fibronectin to antibody-captured αVβ1 integrin” Anal Biochem. 1995 Sep. 1; 230(1):101-7.
# human αVβ8 = human αVβ8 (Homo sapiens, UniProt P06756+P26012); test: human αVβ8 HTRF binding assay
# Procedure: as §1
# as §2, with “signals. […]” for “signals.”
# human αVβ5 = human αVβ5 (Homo sapiens, UniProt P06756+P18084); test: human αVβ5 HTRF binding assay
# Procedure: as §1
# as §2, with “signals. […]” for “signals.”
# human αVβ3 = human αVβ3 (Homo sapiens, UniProt P05106+P06756); test: human αVβ3 HTRF binding assay
# Procedure: as §1
# as §2, with “signals. […]” for “signals.”
# Chain of human αVβ5 (P06756 31-992 limits assumed): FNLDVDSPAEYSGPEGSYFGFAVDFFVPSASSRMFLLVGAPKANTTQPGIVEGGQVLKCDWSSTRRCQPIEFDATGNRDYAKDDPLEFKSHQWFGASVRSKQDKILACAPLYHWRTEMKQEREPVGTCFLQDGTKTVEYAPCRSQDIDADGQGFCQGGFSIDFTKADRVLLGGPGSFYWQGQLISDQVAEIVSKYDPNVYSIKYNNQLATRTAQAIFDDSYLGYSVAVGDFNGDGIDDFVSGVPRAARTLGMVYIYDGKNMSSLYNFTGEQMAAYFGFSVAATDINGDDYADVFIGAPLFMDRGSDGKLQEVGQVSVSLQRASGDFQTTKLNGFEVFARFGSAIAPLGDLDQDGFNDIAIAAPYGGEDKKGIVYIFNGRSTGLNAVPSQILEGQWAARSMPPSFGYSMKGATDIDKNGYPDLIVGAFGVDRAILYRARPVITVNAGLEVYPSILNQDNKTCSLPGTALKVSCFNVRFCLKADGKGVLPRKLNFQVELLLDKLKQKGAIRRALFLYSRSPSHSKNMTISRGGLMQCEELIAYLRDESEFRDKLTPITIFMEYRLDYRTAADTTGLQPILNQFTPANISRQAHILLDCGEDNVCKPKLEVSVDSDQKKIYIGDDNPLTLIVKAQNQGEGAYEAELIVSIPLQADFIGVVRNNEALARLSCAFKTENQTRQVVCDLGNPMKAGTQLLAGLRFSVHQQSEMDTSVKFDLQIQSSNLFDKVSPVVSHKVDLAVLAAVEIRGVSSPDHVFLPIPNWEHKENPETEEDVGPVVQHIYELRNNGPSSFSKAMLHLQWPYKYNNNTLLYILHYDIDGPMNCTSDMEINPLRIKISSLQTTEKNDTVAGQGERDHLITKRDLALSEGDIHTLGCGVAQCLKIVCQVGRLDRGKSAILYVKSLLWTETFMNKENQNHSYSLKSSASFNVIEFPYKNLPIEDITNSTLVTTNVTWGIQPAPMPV
# Chain of human αVβ5 (P18084 24-719 limits assumed): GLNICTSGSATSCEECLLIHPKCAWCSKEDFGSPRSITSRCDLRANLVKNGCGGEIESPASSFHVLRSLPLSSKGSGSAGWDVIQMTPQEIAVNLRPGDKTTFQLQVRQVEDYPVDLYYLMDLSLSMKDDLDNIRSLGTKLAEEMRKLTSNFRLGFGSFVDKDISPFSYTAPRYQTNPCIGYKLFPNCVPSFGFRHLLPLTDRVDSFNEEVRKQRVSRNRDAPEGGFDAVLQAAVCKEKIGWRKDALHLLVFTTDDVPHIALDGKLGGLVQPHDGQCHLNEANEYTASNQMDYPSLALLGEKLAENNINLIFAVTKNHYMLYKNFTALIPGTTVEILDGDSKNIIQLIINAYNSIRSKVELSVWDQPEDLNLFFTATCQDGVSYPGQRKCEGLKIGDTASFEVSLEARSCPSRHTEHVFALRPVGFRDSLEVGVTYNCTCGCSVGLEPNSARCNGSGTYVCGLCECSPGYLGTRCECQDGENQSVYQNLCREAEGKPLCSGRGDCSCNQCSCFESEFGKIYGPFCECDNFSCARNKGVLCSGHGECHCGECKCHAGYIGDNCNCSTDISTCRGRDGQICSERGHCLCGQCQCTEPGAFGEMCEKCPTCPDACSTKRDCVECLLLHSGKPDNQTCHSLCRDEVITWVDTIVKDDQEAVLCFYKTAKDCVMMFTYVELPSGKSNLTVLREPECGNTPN
# Chain of human αVβ1 (P06756 31-992 limits assumed): as the sequence (P06756 31-992 limits assumed) above
# Chain of human αVβ1 (P05556 21-728 limits assumed): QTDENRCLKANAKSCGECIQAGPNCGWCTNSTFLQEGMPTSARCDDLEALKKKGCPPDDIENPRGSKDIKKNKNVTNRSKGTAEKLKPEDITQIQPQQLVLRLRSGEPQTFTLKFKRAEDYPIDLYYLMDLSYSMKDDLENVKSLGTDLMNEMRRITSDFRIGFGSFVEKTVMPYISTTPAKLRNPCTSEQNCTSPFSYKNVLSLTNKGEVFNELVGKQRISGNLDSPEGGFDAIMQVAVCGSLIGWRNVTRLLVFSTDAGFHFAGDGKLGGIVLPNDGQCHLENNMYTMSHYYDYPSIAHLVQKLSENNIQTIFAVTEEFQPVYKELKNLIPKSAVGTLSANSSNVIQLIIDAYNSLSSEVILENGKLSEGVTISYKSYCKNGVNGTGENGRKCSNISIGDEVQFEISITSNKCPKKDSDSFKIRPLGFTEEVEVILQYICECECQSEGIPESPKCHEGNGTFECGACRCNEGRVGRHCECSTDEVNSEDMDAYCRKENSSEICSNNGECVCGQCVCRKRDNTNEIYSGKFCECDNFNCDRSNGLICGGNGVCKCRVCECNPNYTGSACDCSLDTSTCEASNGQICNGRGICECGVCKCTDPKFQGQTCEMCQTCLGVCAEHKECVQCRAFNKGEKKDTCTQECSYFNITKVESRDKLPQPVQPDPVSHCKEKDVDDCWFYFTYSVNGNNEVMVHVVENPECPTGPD
# T1 sequence (P06756 31-992 limits assumed): as the sequence (P06756 31-992 limits assumed) above
# T1 sequence (P18564 22-707 limits assumed): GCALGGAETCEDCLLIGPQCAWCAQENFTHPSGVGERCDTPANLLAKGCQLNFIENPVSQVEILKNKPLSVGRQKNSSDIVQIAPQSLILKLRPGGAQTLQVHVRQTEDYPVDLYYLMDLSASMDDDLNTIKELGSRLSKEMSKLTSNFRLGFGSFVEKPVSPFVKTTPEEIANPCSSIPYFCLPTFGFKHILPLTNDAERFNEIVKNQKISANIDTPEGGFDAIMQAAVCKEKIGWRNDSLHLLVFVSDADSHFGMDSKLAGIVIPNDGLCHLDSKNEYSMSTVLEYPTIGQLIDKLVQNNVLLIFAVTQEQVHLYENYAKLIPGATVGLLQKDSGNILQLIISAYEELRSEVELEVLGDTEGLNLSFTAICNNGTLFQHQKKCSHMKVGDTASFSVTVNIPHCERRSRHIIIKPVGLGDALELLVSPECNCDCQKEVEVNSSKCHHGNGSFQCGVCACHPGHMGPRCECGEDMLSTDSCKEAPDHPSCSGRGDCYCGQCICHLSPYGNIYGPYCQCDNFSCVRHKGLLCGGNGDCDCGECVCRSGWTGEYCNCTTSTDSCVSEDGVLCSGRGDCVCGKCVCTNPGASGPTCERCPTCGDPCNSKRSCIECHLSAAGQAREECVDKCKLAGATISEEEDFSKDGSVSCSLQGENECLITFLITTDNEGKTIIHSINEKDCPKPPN
# Chain of human αVβ3 (P06756 31-992 limits assumed): as the sequence (P06756 31-992 limits assumed) above
# Chain of human αVβ3 (P05106 27-718 limits assumed): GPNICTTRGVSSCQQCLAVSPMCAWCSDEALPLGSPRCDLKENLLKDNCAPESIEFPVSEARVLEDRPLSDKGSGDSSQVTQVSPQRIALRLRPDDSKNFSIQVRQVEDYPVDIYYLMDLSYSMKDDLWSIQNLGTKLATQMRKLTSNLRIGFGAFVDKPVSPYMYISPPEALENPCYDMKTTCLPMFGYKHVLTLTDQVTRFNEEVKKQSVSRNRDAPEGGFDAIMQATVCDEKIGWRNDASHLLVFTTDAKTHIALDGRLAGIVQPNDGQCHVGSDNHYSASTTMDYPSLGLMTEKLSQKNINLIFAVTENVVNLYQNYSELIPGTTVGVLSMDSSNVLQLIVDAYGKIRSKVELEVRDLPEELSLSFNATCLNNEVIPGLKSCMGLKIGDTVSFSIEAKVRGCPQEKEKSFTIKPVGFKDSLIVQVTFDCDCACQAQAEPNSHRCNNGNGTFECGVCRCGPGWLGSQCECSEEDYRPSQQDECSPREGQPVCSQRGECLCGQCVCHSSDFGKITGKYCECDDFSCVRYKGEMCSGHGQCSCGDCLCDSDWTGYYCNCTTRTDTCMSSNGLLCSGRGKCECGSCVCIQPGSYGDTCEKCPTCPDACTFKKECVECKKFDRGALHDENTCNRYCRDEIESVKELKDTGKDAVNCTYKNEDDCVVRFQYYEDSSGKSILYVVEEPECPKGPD
# Chain of human αVβ8 (P06756 31-992 limits assumed): as the sequence (P06756 31-992 limits assumed) above
# Chain of human αVβ8 (P26012 43-684 limits assumed): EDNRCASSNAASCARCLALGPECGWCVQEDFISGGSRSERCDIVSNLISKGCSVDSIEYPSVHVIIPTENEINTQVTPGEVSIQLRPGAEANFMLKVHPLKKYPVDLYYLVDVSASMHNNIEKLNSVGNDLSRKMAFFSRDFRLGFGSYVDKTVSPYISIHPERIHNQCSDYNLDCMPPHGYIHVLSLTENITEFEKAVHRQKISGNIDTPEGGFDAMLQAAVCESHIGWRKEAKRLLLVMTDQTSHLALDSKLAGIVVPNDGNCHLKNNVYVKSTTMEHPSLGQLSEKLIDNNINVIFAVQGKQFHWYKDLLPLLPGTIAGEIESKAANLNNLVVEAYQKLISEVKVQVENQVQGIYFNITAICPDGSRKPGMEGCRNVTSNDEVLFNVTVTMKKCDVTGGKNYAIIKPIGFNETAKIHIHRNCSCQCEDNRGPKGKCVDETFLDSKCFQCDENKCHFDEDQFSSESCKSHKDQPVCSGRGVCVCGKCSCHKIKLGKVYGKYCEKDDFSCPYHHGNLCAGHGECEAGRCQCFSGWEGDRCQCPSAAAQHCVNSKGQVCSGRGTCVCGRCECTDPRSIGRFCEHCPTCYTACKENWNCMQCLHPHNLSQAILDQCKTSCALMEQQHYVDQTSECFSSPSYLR
Structure (SMILES),IC50 (human αVβ6),IC50 (human αVβ1),IC50 (human αVβ8),IC50 (human αVβ5),IC50 (human αVβ3)
"O=C(O)CC(c1cnc2ccccc2n1)n1ncc2cc(OCCc3ccc4c(n3)NCCC4)ccc21 (racemic) [Example 15, (±)-3-(Quinoxalin-2-yl)-3-(5-(2-(5,6,7,8-tetrahydro-1,8-naphthyridin-2-yl)ethoxy)-1H-indazol-1-yl)propanoic acid]",6 nM,270 nM,1500 nM,0.31 nM,2.7 nM
"O=C(O)C[C@@H](c1cnc2ccccc2n1)n1ncc2cc(OCCc3ccc4c(n3)NCCC4)ccc21 [Example 17, (S)-3-(quinoxalin-2-yl)-3-(5-(2-(5,6,7,8-tetrahydro-1,8-naphthyridin-2-yl)ethoxy)-1H-indazol-1-yl)propanoic acid]",4.2 nM,190 nM,1900 nM,0.25 nM,2.1 nM
"COc1ccc(C(CC(=O)O)n2ncc3cc(OCCc4ccc5c(n4)NCCC5)ccc32)cn1 (stereo not shown) [Example 34, 3-(6-Methoxypyridin-3-yl)-3-(5-(2-(5,6,7,8-tetrahydro-1,8-naphthyridin-2-yl)ethoxy)-1H-indazol-1-yl)propanoic acid, TFA]",12 nM,95 nM,1300 nM,0.38 nM,2.5 nM
"COc1ccc([C@H](CC(=O)O)n2ncc3cc(OCCc4ccc5c(n4)NCCC5)ccc32)cn1 [Example 41, (S)-3-(6-Methoxypyridin-3-yl)-3-(5-(2-(5,6,7,8-tetrahydro-1,8-naphthyridin-2-yl)ethoxy)-1H-indazol-1-yl)propanoic acid]",6.2 nM,83 nM,510 nM,0.22 nM,2.3 nM
"O=C(O)CC(c1cnc2ccccc2c1)n1ncc2cc(OCCc3ccc4c(n3)NCCC4)ccc21 (stereo not shown) [Example 48, 3-(Quinolin-3-yl)-3-(5-(2-(5,6,7,8-tetrahydro-1,8-naphthyridin-2-yl)ethoxy)-1H-indazol-1-yl)propanoic acid, TFA]",5.5 nM,270 nM,4400 nM,0.54 nM,3.8 nM
"COc1ccc([C@H](CC(=O)O)n2cc3ccc(CCC4CCc5cccnc5N4)cc3n2)cn1 (stereo partly drawn) [Example 72, (3S)-3-(6-Methoxypyridin-3-yl)-3-(6-(2-(1,2,3,4-tetrahydro-1,8-naphthyridin-2-yl)ethyl)-2H-indazol-2-yl)propanoic acid]",8.2 nM,740 nM,3200 nM,1.5 nM,4.4 nM
"CCOc1ncc(C(CC(=O)O)n2ncc3cc(OCCc4ccc5c(n4)NCCC5)ccc32)cn1 (stereo not shown) [Example 77, 3-(2-Ethoxypyrimidin-5-yl)-3-(5-(2-(5,6,7,8-tetrahydro-1,8-naphthyridin-2-yl)ethoxy)-1H-indazol-1-yl)propanoic acid, TFA]",5.8 nM,170 nM,5000 nM,0.39 nM,2.8 nM
"O=C(O)C[C@@H](c1cnc2ccccc2c1)n1cc2ccc(CCC3CCc4cccnc4N3)cc2n1 (stereo partly drawn) [Example 83, (3S)-3-(Quinolin-3-yl)-3-(6-(2-(1,2,3,4-tetrahydro-1,8-naphthyridin-2-yl)ethyl)-2H-indazol-2-yl)propanoic acid]",4.7 nM,360 nM,5000 nM,2.2 nM,4.1 nM
"O=C(O)C[C@@H](c1cnc2ccccc2c1)n1cc2ccc(CCCc3ccc4c(n3)NCCC4)cc2n1 [Example 87, (S)-3-(Quinolin-3-yl)-3-(6-(3-(5,6,7,8-tetrahydro-1,8-naphthyridin-2-yl)propyl)-2H-indazol-2-yl)propanoic acid]",1.3 nM,10000 nM,3300 nM,3.2 nM,2.3 nM
"O=C(O)CC(c1cncc(CO)c1)n1ncc2cc(OCCc3ccc4c(n3)NCCC4)ccc21 (stereo not shown) [Example 89, 3-(5-(Hydroxymethyl)pyridin-3-yl)-3-(5-(2-(5,6,7,8-tetrahydro-1,8-naphthyridin-2-yl)ethoxy)-1H-indazol-1-yl)propanoic acid]",19 nM,370 nM,5000 nM,0.42 nM,3.1 nM
"COc1ncc(C(CC(=O)O)n2ncc3cc(OCCc4ccc5c(n4)NCCC5)ccc32)cn1 (stereo not shown) [Example 92, 3-(2-Methoxypyrimidin-5-yl)-3-(5-(2-(5,6,7,8-tetrahydro-1,8-naphthyridin-2-yl)ethoxy)-1H-indazol-1-yl)propanoic acid, TFA]",31 nM,210 nM,5000 nM,0.39 nM,2.4 nM
"O=C(O)CC(c1cnc2nccnc2c1)n1ncc2cc(OCCc3ccc4c(n3)NCCC4)ccc21 (stereo not shown) [Example 95, 3-(Pyrido[2,3-b]pyrazin-7-yl)-3-(5-(2-(5,6,7,8-tetrahydro-1,8-naphthyridin-2-yl)ethoxy)-1H-indazol-1-yl)propanoic acid, 2 TFA]",30 nM,210 nM,7600 nM,,2.4 nM
"O=C(O)CC(c1cnc2c(c1)OCCN2)n1ncc2cc(OCCc3ccc4c(n3)NCCC4)ccc21 (stereo not shown) [Example 97, TFA]",10 nM,100 nM,5000 nM,0.59 nM,2.6 nM
"O=C(O)C[C@@H](c1cncc(CO)c1)n1ncc2cc(OCCc3ccc4c(n3)NCCC4)ccc21 [Example 100, (5)-3-(5-(Hydroxymethyl)pyridin-3-yl)-3-(5-(2-(5,6,7,8-tetrahydro-1,8-naphthyridin-2-yl)ethoxy)-1H-indazol-1-yl)propanoic acid]",14 nM,140 nM,4400 nM,0.41 nM,2.9 nM
"O=C(O)CC(c1cnc2ncccc2c1)n1ncc2cc(OCCc3ccc4c(n3)NCCC4)ccc21 (stereo not shown) [Example 101, 3-(1,8-Naphthyridin-3-yl)-3-(5-(2-(5,6,7,8-tetrahydro-1,8-naphthyridin-2-yl)ethoxy)-1H-indazol-1-yl)propanoic acid, 2 TFA]",5.7 nM,100 nM,2300 nM,,1.6 nM
"O=C(O)CC(c1cncc(N2CCCC2=O)c1)n1ncc2cc(OCCc3ccc4c(n3)NCCC4)ccc21 (stereo not shown) [Example 102, 3-(5-(2-Oxopyrrolidin-1-yl)pyridin-3-yl)-3-(5-(2-(5,6,7,8-tetrahydro-1,8-naphthyridin-2-yl)ethoxy)-1H-indazol-1-yl)propanoic acid, 2 TFA]",4.3 nM,39 nM,1300 nM,,2.2 nM
"O=C(O)CC(c1cnc2c(c1)OCCO2)n1ncc2cc(OCCc3ccc4c(n3)NCCC4)ccc21 (stereo not shown) [Example 109, 3-(2,3-Dihydro-[1,4]dioxino[2,3-b]pyridin-7-yl)-3-(5-(2-(5,6,7,8-tetrahydro-1,8-naphthyridin-2-yl)ethoxy)-1H-indazol-1-yl)propanoic acid, 2 TFA]",15 nM,62 nM,9300 nM,,1.3 nM
"CNc1ncc(C(CC(=O)O)n2ncc3cc(OCCc4ccc5c(n4)NCCC5)ccc32)cn1 (stereo not shown) [Example 112, 3-(2-(Methylamino)pyrimidin-5-yl)-3-(5-(2-(5,6,7,8-tetrahydro-1,8-naphthyridin-2-yl)ethoxy)-1H-indazol-1-yl)propanoic acid, 2 TFA]",21 nM,93 nM,5000 nM,,2.9 nM
